Read-outs that look alike come from different tables or passages of the source.
Assays:
[1] = target: T1, human GAL3 receptor (Homo sapiens, UniProt O60755); assay: Radioligand binding at cloned human GAL3 receptor
T1 construct: expressed in transfected cells
T1 sequence (O60755 1-368): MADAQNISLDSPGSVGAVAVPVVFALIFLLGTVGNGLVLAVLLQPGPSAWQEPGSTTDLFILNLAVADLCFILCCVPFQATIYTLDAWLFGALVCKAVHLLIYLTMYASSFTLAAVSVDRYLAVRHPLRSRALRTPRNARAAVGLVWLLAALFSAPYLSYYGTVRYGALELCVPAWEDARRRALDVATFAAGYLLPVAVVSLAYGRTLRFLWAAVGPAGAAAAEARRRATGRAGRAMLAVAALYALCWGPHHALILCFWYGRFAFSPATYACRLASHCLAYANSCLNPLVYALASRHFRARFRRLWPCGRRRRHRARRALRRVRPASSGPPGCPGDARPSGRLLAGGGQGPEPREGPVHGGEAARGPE
Outline: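 Membranes from LM(tk-) cells stably expressing human GAL3, prepared in binding buffer (HEPES-based, pH 7.4), used for radioligand binding. Solvent at final assay concentration: 3% DMSO for indolones, 1% ethanol/0.09% pluronic F-127 for pyrimidines. Binding data analysed by nonlinear regression.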

[2] = target: T2, human 5HT1B (Homo sapiens, UniProt P28222); assay: Radioligand binding, 5HT1B receptor ([3H]-serotonin)
T2 construct: expressed in transfected cells
T2 sequence (P28222 whole entry): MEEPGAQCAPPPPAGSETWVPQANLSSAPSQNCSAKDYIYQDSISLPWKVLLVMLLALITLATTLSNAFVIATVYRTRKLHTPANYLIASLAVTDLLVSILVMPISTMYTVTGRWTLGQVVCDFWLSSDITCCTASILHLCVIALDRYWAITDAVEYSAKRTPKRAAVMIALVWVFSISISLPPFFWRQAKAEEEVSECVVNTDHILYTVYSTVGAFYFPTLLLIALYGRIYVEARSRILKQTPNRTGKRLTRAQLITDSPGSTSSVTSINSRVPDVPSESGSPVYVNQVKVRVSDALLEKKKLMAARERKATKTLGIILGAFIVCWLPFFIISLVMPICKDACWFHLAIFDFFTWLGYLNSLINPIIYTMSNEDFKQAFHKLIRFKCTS
Protocol: Human 5HT1B, 5HT1D, 5HT1E, 5HT1F, and 5HT7 Receptors: The cell lysates of LM(tk-) clonal cell line stably transfected with the genes encoding each of these 5HT receptor-subtypes were prepared as described above. Cell membranes were suspended in 50mM Tris-HCl buffer (pH 7.4 at 37°C) containing 10 mM MgCl2, 0.2 mM EDTA, 10 µM pargyline, and 0.1% ascorbate. […] Nonspecific binding was determined in the presence of 10 µM serotonin. The bound radioligand was separated by filtration through GF/B filters using a cell harvester.
(§1) Binding data were analyzed using nonlinear regression and statistical techniques available in the GraphPAD Prism package (San Diego, CA). Enzymatic assay data were derived from a standard curve of reference compound data.

[3] = target: 5HT transporter (Rattus norvegicus, UniProt P31652); assay: Binding at native 5HT transporter
5HT transporter, sequence (P31652 whole entry): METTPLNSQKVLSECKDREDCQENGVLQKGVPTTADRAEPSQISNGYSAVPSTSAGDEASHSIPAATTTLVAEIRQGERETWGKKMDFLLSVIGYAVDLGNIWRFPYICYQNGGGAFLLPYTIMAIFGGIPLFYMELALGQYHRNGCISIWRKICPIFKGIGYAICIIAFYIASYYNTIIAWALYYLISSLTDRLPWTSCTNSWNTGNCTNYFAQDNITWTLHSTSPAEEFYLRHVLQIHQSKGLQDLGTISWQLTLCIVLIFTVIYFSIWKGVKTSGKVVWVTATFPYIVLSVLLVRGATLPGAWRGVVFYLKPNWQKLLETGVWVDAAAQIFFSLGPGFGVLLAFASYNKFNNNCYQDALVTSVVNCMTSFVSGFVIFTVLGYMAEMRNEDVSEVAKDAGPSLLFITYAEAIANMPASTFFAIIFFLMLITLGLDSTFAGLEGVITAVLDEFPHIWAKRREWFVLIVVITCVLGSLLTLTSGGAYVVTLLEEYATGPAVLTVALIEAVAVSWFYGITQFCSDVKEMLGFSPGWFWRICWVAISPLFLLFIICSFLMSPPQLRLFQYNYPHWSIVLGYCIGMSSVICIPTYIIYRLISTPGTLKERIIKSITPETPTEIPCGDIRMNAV
Protocol: The binding properties of the compounds of the present invention were evaluated at one or more cloned receptors or native, tissue-derived transporters, using protocols described below.
The methods to determine binding affinity at native transporters are described in the following publications: 5HT transporter and NE transporter (Owens et al., 1997), and DA transporter (Javitch et al, 1984).
as §1

[4] = target: T3, human α1B adrenoceptor (Homo sapiens, UniProt P35368); assay: Radioligand binding, α1B adrenergic receptor
T3 construct: expressed in transfected cells
T3 sequence (P35368 1-520): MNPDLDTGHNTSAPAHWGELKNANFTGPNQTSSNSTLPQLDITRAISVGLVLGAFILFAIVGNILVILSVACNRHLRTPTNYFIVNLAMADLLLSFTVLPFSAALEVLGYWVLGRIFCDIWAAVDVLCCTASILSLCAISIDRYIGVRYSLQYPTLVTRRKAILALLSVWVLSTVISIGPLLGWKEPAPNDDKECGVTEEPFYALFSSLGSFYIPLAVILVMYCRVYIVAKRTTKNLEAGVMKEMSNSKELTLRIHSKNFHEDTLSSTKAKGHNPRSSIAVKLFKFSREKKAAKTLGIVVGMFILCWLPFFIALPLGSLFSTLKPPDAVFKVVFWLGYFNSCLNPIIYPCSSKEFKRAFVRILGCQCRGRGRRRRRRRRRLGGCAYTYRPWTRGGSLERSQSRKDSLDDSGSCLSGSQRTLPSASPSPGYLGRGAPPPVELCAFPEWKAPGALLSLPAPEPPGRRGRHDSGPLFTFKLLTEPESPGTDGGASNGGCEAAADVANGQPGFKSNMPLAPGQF

[5] = pyrimidines, cloned human receptor, read-out: Ki GalR3
[6] = Table 8; Ki h5HT1B divided by Ki hGAL3
[7] = Table 7; native transporter, head prints r (rat); read-out: r5HT Uptk Ki
[8] = Table 8; Ki r5HT Uptk divided by Ki hGAL3
[9] = Table 10; Ki hα1B divided by Ki hGAL3
[10] = indolones, cloned human receptor, read-out: Ki GalR3

SMILES	Ki ([1]; Table 7, read-out: hGAL3 Ki) [µM]	Ki ([1]; Table 9, read-out: hGAL3 Ki) [µM]	Ki [1, 5] [µM]	Ki ([2]; Table 7; read-out: h5HT1B Ki) [µM]	selectivity ratio h5HT1B [2, 6]	Ki [3, 7] [µM]	selectivity ratio r5HT Uptk [3, 8]	Ki ([4]; Table 9; read-out: hα1B Ki) [µM]	selectivity ratio hα1B [4, 9]	Ki [1, 10] [µM]	GAL1/GAL3 Ki ratio ([1]; Ki at GAL1 divided by Ki at human GAL3)	Ki ([1]; read-out: Ki GalR3, pyrimidines, cloned human receptor) [µM]	Ki ([1]; read-out: hGAL3 Ki, Table 7) [µM]	Ki ([1]; read-out: hGAL3 Ki, Table 9) [µM]	Ki ([2]; read-out: h5HT1B Ki; Table 7) [µM]	Ki ([3]; read-out: r5HT Uptk Ki; Table 7; native transporter, head prints r (rat)) [µM]	Ki ([4]; read-out: hα1B Ki; Table 9) [µM]
CN(CCc1c[nH]c2ccccc12)c1nc(Nc2ccc(F)c(F)c2)cc(N2CCCCC2)n1 [Example 15]	0.073	0.073	0.073	0.487	7	1.74	24	0.853	12	–	–	–	–	–	–	–	–
O=C1C(=Nc2ccc(Cl)cc2)c2ccccc2N1c1ccccc1 [Example 97, 3-[(4-CHLOROPHENYL)IMINO]-1-PHENYL-1,3-DIHYDRO-2H-INDOL-2-ONE]	0.051	0.051	–	5.06	>30	36.3	>100	45.8	>100	0.051	–	–	–	–	–	–	–
O=C1C(=Nc2ccc(Br)cc2)c2ccccc2N1c1ccccc1 [Example 98, 3-[(4-BROMOPHENYL)IMINO]-1-PHENYL-1,3-DIHYDRO-2H-INDOL-2-ONE]	0.038	0.038	–	2.42	>30	36.3	>100	31.7	>100	0.038	–	–	–	–	–	–	–
Cc1ccc(Nc2cc(N3CCCCC3)nc(N(C)CCc3c[nH]c4ccccc34)n2)cc1 [Example 11]	0.091	0.091	0.091	0.101	1	1.59	18	1.44	16	–	–	–	–	–	–	–	–
O=C1C(=Nc2cc(Cl)cc(Cl)c2)c2ccccc2N1c1ccccc1 [Example 103, 3-[(3,5-DICHLOROPHENYL)IMINO]-1-PHENYL-1,3-DIHYDRO-2H-INDOL-2-ONE]	–	–	–	–	–	–	–	–	–	0.068	–	–	–	–	–	–	–
Cc1ccc(Nc2cc(N3CCCCC3)nc(N3CCN(c4ncccc4C(F)(F)F)CC3)n2)cc1 [Example 34]	0.023	0.023	0.023	1.06	>30	37.5	>100	15	>100	–	39	–	–	–	–	–	–
O=C1C(=Nc2ccc(C(F)(F)F)cc2)c2ccccc2N1c1ccccc1 [Example 95, 1-PHENYL-3-[[4-(TRIFLUOROMETHYL)PHENYL]IMINO]-1,3-DIHYDRO-2H-INDOL-2-ONE]	0.029	0.029	–	5.23	>100	> 50	>100	32.5	>100	0.029	–	–	–	–	–	–	–
COc1cccc(Nc2cc(N3CCCCC3)nc(N(C)CCc3c[nH]c4ccccc34)n2)c1 [Example 17]	0.087	0.087	0.087	0.407	5	0.719	8	1.17	13	–	–	–	–	–	–	–	–
CN(C)c1cc(Nc2ccc(Cl)c(Cl)c2)nc(Nc2ccccc2)n1 [Example 60]	0.086	0.086	0.086	5.46	>30	25.3	>100	40.6	>100	–	–	–	–	–	–	–	–
O=C1C(=Nc2cccc(C(F)(F)F)c2)c2ccccc2N1c1ccccc1 [Example 92, 1-PHENYL-3- [[3-(TRIFLUOROMETHYL)PHENYL]IMINO]-1,3-DIHYDRO-2H-INDOL-2-ONE]	–	–	–	–	>100	–	>100	–	>100	–	–	–	–	–	–	–	–
O=C1C(=Nc2cccc(Cl)c2)c2ccccc2N1c1ccccc1 [Example 94, 3-[(3-CHLOROPHENYL)IMINO]-1-PHENYL-1,3-DIHYDRO-2H-INDOL-2-ONE]	0.049	0.049	–	3.35	>30	13	>100	31.1	>100	0.049	–	–	–	–	–	–	–
Cc1ccc(Nc2cc(N3CCCCC3)nc(N(C)CCc3ccccc3)n2)cc1 [Example 22]	0.028	0.028	0.028	1.98	>30	8.48	>100	1.58	>30	–	–	–	–	–	–	–	–
COC[C@@H]1[C@@H](c2ccccc2)OCCN1c1nc(Nc2ccc(C)cc2)cc(N2CCCCC2)n1 [Example 49]	–	–	–	–	>30	–	>100	–	>30	–	–	0.211	0.211	0.211	8.45	40.7	18.9
Cc1ccc(Nc2cc(N(C)C)nc(N(C)CCc3c[nH]c4ccccc34)n2)cc1 [Example 77]	0.079	0.079	0.079	0.365	5	0.821	10	0.452	6	–	–	–	–	–	–	–	–

From patent publication EP2140864A2 (H. Lundbeck A/S, priority 2001, dated 2002)
